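Where inhibition never reached the appropriate level, the endpoint shown equals the highest concentration tested. Otherwise, values were interpolated linearly from a five-concentration, 48-hour dose response in 96-well plates. GI50 marks 50% less growth.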 Activity calls are given as the source filed them. Rule as the data show it: active = GI50 up to about 1.1 µM and inactive = higher.
Key:
Experiment in all cases: NCI anticancer screen, dose series, 48 h
DU-145 = system: DU-145
SNB-19 = system: SNB-19
SF-295 = system: SF-295
NCI-H226 = system: NCI-H226
MOLT-4 = system: MOLT-4
NCI-H460 = system: NCI-H460
CAKI-1 = system: CAKI-1
OVCAR-5 = system: OVCAR-5
OVCAR-8 = system: OVCAR-8
MDA-MB-231 = system: MDA-MB-231
ACHN = system: ACHN
T47D = system: T47D
Hs-578T = system: Hs-578T
UO-31 = system: UO-31
IGROV-1 = system: IGROV-1
COLO 205 = system: COLO 205
HCT-116 = system: HCT-116
OVCAR-3 = system: OVCAR-3
NCI/ADR-RES = system: NCI/ADR-RES
SF-539 = system: SF-539

Cc1ccccc1OC(C)C(=O)NN1C(=O)CSC1c1ccc(Cl)cc1 (stereo not given)
GI50 (DU-145): 38.2 µM (inactive)
GI50 (SNB-19): 59.2 µM (inactive)
GI50 (SF-295): 25.6 µM (inactive)
GI50 (NCI-H226): > 49.1 µM (inactive)
GI50 (MOLT-4): 22.1 µM (inactive)
GI50 (NCI-H460): 26.1 µM (inactive)
GI50 (CAKI-1): 56.6 µM (inactive)
GI50 (OVCAR-5): 54.6 µM (inactive)
GI50 (OVCAR-8): 52 µM (inactive)
GI50 (MDA-MB-231): 26.2 µM (inactive)
GI50 (ACHN): 33 µM (inactive)
GI50 (T47D): 51.1 µM (inactive)
GI50 (Hs-578T): 41.8 µM (inactive)
GI50 (UO-31): > 100 µM (inactive)
GI50 (IGROV-1): 38.5 µM (inactive)
GI50 (COLO 205): > 56.1 µM (inactive)
GI50 (HCT-116): 31.4 µM (inactive)
GI50 (OVCAR-3): 31 µM (inactive)
GI50 (NCI/ADR-RES): 54.3 µM (inactive)
GI50 (SF-539): 26.5 µM (inactive)

C/C(=N\Nc1nc2ccccc2[nH]1)c1ccncn1
GI50 (DU-145): 0.0843 µM (active)
GI50 (SNB-19): 0.246 µM (active)
GI50 (SF-295): 0.115 µM (active)
GI50 (NCI-H226): 0.0817 µM (active)
GI50 (MOLT-4): 0.17 µM (active)
GI50 (NCI-H460): 0.0914 µM (active)
GI50 (CAKI-1): 0.123 µM (active)
GI50 (OVCAR-5): 4.11 µM (inactive)
GI50 (OVCAR-8): 0.124 µM (active)
GI50 (MDA-MB-231): 3.64 µM (inactive)
GI50 (ACHN): 0.0441 µM (active)
GI50 (T47D): 0.103 µM (active)
GI50 (Hs-578T): 80 µM (inactive)
GI50 (UO-31): 0.114 µM (active)
GI50 (IGROV-1): 0.103 µM (active)
GI50 (COLO 205): 0.128 µM (active)
GI50 (HCT-116): 0.113 µM (active)
GI50 (OVCAR-3): 0.25 µM (active)
GI50 (NCI/ADR-RES): 0.153 µM (active)
GI50 (SF-539): 0.0394 µM (active)

COC(=O)c1ccccc1C1CN=NC12Cc1c(C)c3c(c(C)c1C2=O)CCC3 (stereo not given)
GI50 (DU-145): > 100 µM (inactive)
GI50 (SNB-19): > 100 µM (inactive)
GI50 (SF-295): 33.1 µM (inactive)
GI50 (NCI-H226): > 100 µM (inactive)
GI50 (MOLT-4): > 100 µM (inactive)
GI50 (NCI-H460): > 100 µM (inactive)
GI50 (CAKI-1): > 100 µM (inactive)
GI50 (OVCAR-5): > 100 µM (inactive)
GI50 (OVCAR-8): > 100 µM (inactive)
GI50 (MDA-MB-231): 23.6 µM (inactive)
GI50 (ACHN): > 100 µM (inactive)
GI50 (T47D): > 100 µM (inactive)
GI50 (Hs-578T): > 100 µM (inactive)
GI50 (UO-31): > 100 µM (inactive)
GI50 (IGROV-1): > 100 µM (inactive)
GI50 (COLO 205): > 100 µM (inactive)
GI50 (HCT-116): 37.6 µM (inactive)
GI50 (OVCAR-3): > 100 µM (inactive)
GI50 (NCI/ADR-RES): > 100 µM (inactive)
GI50 (SF-539): > 100 µM (inactive)

CC(=O)/C(=C\NC(=S)Nc1ccc(S(N)(=O)=O)cc1)C(=O)Nc1ccccc1C
GI50 (DU-145): 57.7 µM (inactive)
GI50 (SNB-19): 84.3 µM (inactive)
GI50 (SF-295): 36 µM (inactive)
GI50 (NCI-H226): 60.3 µM (inactive)
GI50 (MOLT-4): 28.5 µM (inactive)
GI50 (NCI-H460): 27 µM (inactive)
GI50 (CAKI-1): 37.8 µM (inactive)
GI50 (OVCAR-5): 99.3 µM (inactive)
GI50 (OVCAR-8): 72.9 µM (inactive)
GI50 (MDA-MB-231): 34.2 µM (inactive)
GI50 (ACHN): 52.5 µM (inactive)
GI50 (T47D): 28.7 µM (inactive)
GI50 (Hs-578T): 61.8 µM (inactive)
GI50 (UO-31): 32.4 µM (inactive)
GI50 (IGROV-1): 55.3 µM (inactive)
GI50 (COLO 205): 18.5 µM (inactive)
GI50 (HCT-116): 40.5 µM (inactive)
GI50 (OVCAR-3): 64.7 µM (inactive)
GI50 (NCI/ADR-RES): > 100 µM (inactive)
GI50 (SF-539): 74 µM (inactive)

Cn1c(=S)c2nc(SCCN3C(=O)c4ccccc4C3=O)[nH]c2n(C)c1=O
GI50 (DU-145): > 100 µM (inactive)
GI50 (SNB-19): > 100 µM (inactive)
GI50 (SF-295): > 100 µM (inactive)
GI50 (NCI-H226): > 100 µM (inactive)
GI50 (MOLT-4): 88.3 µM (inactive)
GI50 (NCI-H460): 92.7 µM (inactive)
GI50 (CAKI-1): > 100 µM (inactive)
GI50 (OVCAR-5): > 100 µM (inactive)
GI50 (OVCAR-8): > 100 µM (inactive)
GI50 (MDA-MB-231): > 100 µM (inactive)
GI50 (ACHN): > 100 µM (inactive)
GI50 (T47D): > 100 µM (inactive)
GI50 (Hs-578T): > 100 µM (inactive)
GI50 (UO-31): > 100 µM (inactive)
GI50 (IGROV-1): 30.1 µM (inactive)
GI50 (COLO 205): > 100 µM (inactive)
GI50 (HCT-116): > 100 µM (inactive)
GI50 (OVCAR-3): > 100 µM (inactive)
GI50 (NCI/ADR-RES): > 100 µM (inactive)
GI50 (SF-539): > 100 µM (inactive)

CCOC(=O)c1cc([N+](=O)[O-])c(Sc2ncnc3nc[nH]c23)c([N+](=O)[O-])c1
GI50 (DU-145): 10.2 µM (inactive)
GI50 (SNB-19): 17.1 µM (inactive)
GI50 (SF-295): 3.36 µM (inactive)
GI50 (NCI-H226): 5.61 µM (inactive)
GI50 (MOLT-4): 1.87 µM (inactive)
GI50 (NCI-H460): 7.5 µM (inactive)
GI50 (CAKI-1): 2.37 µM (inactive)
GI50 (OVCAR-5): 1.66 µM (inactive)
GI50 (OVCAR-8): 4.74 µM (inactive)
GI50 (MDA-MB-231): 4.92 µM (inactive)
GI50 (ACHN): 6.85 µM (inactive)
GI50 (T47D): 2.96 µM (inactive)
GI50 (Hs-578T): 9.64 µM (inactive)
GI50 (UO-31): 2.62 µM (inactive)
GI50 (IGROV-1): 1.26 µM (inactive)
GI50 (COLO 205): 1.66 µM (inactive)
GI50 (HCT-116): 1.87 µM (inactive)
GI50 (OVCAR-3): 1.39 µM (inactive)
GI50 (NCI/ADR-RES): 2.82 µM (inactive)
GI50 (SF-539): 3.09 µM (inactive)

Cc1occc(=O)c1O [MALTOL]
GI50 (DU-145): > 100 µM (inactive)
GI50 (SNB-19): > 100 µM (inactive)
GI50 (SF-295): > 100 µM (inactive)
GI50 (NCI-H226): > 100 µM (inactive)
GI50 (MOLT-4): > 100 µM (inactive)
GI50 (NCI-H460): > 100 µM (inactive)
GI50 (CAKI-1): > 100 µM (inactive)
GI50 (OVCAR-5): > 100 µM (inactive)
GI50 (OVCAR-8): > 100 µM (inactive)
GI50 (MDA-MB-231): 3.84 µM (inactive)
GI50 (ACHN): > 100 µM (inactive)
GI50 (T47D): > 100 µM (inactive)
GI50 (Hs-578T): > 100 µM (inactive)
GI50 (UO-31): > 100 µM (inactive)
GI50 (IGROV-1): > 100 µM (inactive)
GI50 (COLO 205): > 100 µM (inactive)
GI50 (HCT-116): > 100 µM (inactive)
GI50 (OVCAR-3): > 100 µM (inactive)
GI50 (NCI/ADR-RES): > 100 µM (inactive)
GI50 (SF-539): > 100 µM (inactive)

Reference: ChEMBL document CHEMBL1201862, “PubChem BioAssay data set” (2004)
